Earlier results as cited in paper PMC7700871 (ACS chemical biology, 2020).

Molecular target: Abl-1 (Homo sapiens, UniProt P00519)
Details: cited from earlier work

Abl-1, sequence (P00519 whole entry, species assumed): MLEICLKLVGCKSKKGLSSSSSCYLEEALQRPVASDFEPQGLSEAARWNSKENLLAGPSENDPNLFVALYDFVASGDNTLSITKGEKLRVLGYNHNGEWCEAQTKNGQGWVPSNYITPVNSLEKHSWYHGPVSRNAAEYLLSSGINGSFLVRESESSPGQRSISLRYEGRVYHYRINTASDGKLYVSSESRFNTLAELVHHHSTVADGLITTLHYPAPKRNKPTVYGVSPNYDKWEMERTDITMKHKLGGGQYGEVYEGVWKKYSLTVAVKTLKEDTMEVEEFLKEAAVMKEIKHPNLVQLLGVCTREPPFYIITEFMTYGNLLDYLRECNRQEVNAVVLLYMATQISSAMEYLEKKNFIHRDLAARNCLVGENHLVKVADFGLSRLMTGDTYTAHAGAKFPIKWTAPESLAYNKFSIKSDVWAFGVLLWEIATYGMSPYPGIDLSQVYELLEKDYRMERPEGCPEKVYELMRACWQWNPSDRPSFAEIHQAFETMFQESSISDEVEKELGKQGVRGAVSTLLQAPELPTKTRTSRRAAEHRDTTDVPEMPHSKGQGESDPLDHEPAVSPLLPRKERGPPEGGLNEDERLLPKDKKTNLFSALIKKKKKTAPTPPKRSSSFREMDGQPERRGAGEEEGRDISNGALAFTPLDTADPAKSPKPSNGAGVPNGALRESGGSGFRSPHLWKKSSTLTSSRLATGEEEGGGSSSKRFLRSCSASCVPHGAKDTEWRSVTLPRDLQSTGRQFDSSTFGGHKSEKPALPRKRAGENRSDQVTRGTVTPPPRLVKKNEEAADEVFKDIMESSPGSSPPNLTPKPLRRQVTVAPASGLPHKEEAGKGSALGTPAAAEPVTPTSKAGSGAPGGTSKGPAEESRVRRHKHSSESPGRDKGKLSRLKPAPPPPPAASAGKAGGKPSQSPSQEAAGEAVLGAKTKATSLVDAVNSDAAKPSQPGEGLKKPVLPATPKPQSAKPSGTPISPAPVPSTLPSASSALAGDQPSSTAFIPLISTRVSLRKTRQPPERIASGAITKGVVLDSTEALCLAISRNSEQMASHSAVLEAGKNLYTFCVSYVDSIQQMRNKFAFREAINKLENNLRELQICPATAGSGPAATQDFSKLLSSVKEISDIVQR

Cc1ccc(NC(=O)c2ccc(CN3CC[C@H](N(C)C)C3)c(C(F)(F)F)c2)cc1Nc1nccc(-c2cncnc2)n1 [bafetinib]
global conformation of Abl-1's SH3-SH2-CD module: promote an open global conformation
